Structures can show the parent of a compound that is named as a salt.
The compounds below were run on Acinetobacter baumannii ATCC17961 (assay: Antimicrobial susceptibility testing: 90% growth inhibitory concentration (IC90) determination in Iso-Sensitest broth, OD600 growth). Conditions: Acinetobacter baumannii, ATCC17961, 16 h, read-out: A. baumannii ATCC 17961 IC90 (uM), strain ATCC 17961, OD600 growth over 16 h.
Format: cell-based
Outline: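 Twofold compound dilutions (e.g. 50 to 0.097 μM final) in Iso-Sensitest broth with ~5×10^(5) CFU/ml, 35±2 °C. OD600 read every 20 min over 16 h; IC90 from growth inhibition during logarithmic phase.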

Structure (SMILES) | IC90
Cc1cc(Nc2nccn3c(-c4cn(C)nc4C(F)(F)F)cnc23)ccc1C(=O)N1CCN(C(=O)[C@@H]2C[C@@H](O)CN2)CC1 [Example 473, formic acid; [4-[(2S,4R)-4-hydroxypyrrolidine-2-carbonyl]piperazin-1-yl]-[2-methyl-4-[[3-[1-methyl-3-(trifluoromethyl)pyrazol-4-yl]imidazo[1,2-a]pyrazin-8-yl]amino]phenyl]methanone] | 1.29 µM
O=C(NCCCNC(=O)[C@@H]1C[C@@H](O)CN1)c1ccc(Nc2nccn3c(-c4c[nH]nc4C(F)(F)F)cnc23)cc1Cl [Example 429, (2S,4R)-N-[3-[[2-chloro-4-[[3-[3-(trifluoromethyl)-1H-pyrazol-4-yl]imidazo[1,2-a]pyrazin-8-yl]amino]benzoyl]amino]propyl]-4-hydroxypyrrolidine-2-carboxamide formate] | 1.07 µM
N=C(N)NC[C@H](N)C(=O)NCCCNC(=O)c1ccc(Nc2nccn3c(-c4c[nH]nc4C(F)(F)F)cnc23)cc1Cl [Example 211, N-[3-[[(2S)-2-amino-3-carbamimidamidopropanoyl]amino]propyl]-2-chloro-4-[[3-[3-(trifluoromethyl)-1H-pyrazol-4-yl]imidazo[1,2-a]pyrazin-8-yl]amino]benzamide formate] | 0.284 µM
N#CCn1cc(-c2cnc3c(Nc4ccc(C(=O)NCC(=O)NCCN)c(Cl)c4)nccn23)c(C(F)(F)F)n1 [Example 119, N-[2-(2-aminoethylamino)-2-oxoethyl]-2-chloro-4-[[3-[1-(cyanomethyl)-3-(trifluoromethyl)pyrazol-4-yl]imidazo[1,2-a]pyrazin-8-yl]amino]benzamide formate] | 0.476 µM
CCc1cc(Nc2nccn3c(-c4c[nH]nc4C(F)(F)F)cnc23)ccc1C(=O)NCCCNC(=O)CCCN [Example 215, N-[3-(4-aminobutanoylamino)propyl]-2-ethyl-4-[[3-[3-(trifluoromethyl)-1H-pyrazol-4-yl]imidazo[1,2-a]pyrazin-8-yl]amino]benzamide formate] | 0.394 µM
Cc1cc(Nc2nccn3c(-c4cn(CC#N)nc4C(F)(F)F)cnc23)ccc1C(=O)NCCNC(=O)[C@@H]1C[C@@H](O)CN1 [Example 375, (2S,4R)-N-[2-[[4-[[3-[1-(cyanomethyl)-3-(trifluoromethyl)pyrazol-4-yl]imidazo[1,2-a]pyrazin-8-yl]amino]-2-methylbenzoyl]amino]ethyl]-4-hydroxypyrrolidine-2-carboxamide formate] | 0.338 µM
CCc1cc(Nc2nccn3c(-c4c[nH]nc4C(F)(F)F)cnc23)ccc1C(=O)NCC1CNC1 [Example 513, N-(azetidin-3-ylmethyl)-2-ethyl-4-((3-(3-(trifluoromethyl)-1H-pyrazol-4-yl)imidazo[1,2-a]pyrazin-8-yl)amino)benzamide formate] | 0.15 µM
CCc1cc(Nc2nccn3c(-c4cn(CC(F)F)nc4C(F)(F)F)cnc23)ccc1C(=O)NCCCNC(=O)[C@H](C)N [Example 628, (S)-N-(3-(2-aminopropanamido)propyl)-4-((3-(1-(2,2-difluoroethyl)-3-(trifluoromethyl)-1H-pyrazol-4-yl)imidazo[1,2-a]pyrazin-8-yl)amino)-2-ethylbenzamide formate] | 0.195 µM
CCc1cc(Nc2nccn3c(-c4cn(CC(O)CO)nc4C(F)(F)F)cnc23)ccc1C(=O)NCCOCCN (stereo not shown) [Example 314, N-[2-(2-aminoethoxy)ethyl]-4-[[3-[1-(2,3-dihydroxypropyl)-3-(trifluoromethyl)pyrazol-4-yl]imidazo[1,2-a]pyrazin-8-yl]amino]-2-ethylbenzamide formate] | 1.43 µM

Same assay, conditions: Acinetobacter baumannii, ATCC17961, 16 h, strain ATCC 17961, OD600 growth over 16 h, read-out: A. baumannii ATCC 17961 IC90

Structure (SMILES) | IC90
CCc1cc(Nc2nccn3c(-c4c[nH]nc4C(F)(F)F)cnc23)ccc1C(=O)NCCCNC(=O)[C@H]1C[C@H](N)C1 [Example 532, N-(3-((1r,3r)-3-aminocyclobutane-1-carboxamido)propyl)-2-ethyl-4-((3-(3-(trifluoromethyl)-1H-pyrazol-4-yl)imidazo [1,2-a]pyrazin-8-yl)amino)benzamide formate] | 0.245 µM
CC1(O)CN(C(=O)c2ccc(Nc3nccn4c(-c5cn(CC#N)nc5C(F)(F)F)cnc34)cc2Cl)C1 [Example 242, 2-[4-[8-[3-chloro-4-(3-hydroxy-3-methylazetidine-1-carbonyl)anilino]imidazo[1,2-a]pyrazin-3-yl]-3-(trifluoromethyl)pyrazol-1-yl]acetonitrile] | 0.33 µM
N#CCn1cc(-c2cnc3c(Nc4ccc(C(=O)NCC(=O)NC5CC(N)C5)c(Cl)c4)nccn23)c(C(F)(F)F)n1 (stereo not shown) [Example 660, N-[2-[(3-aminocyclobutyl)amino]-2-oxo-ethyl]-2-chloro-4-[[3-[1-(cyanomethyl)-3-(trifluoromethyl)pyrazol-4-yl]imidazo[1,2-a]pyrazin-8-yl]amino] benzamide formate] | 0.277 µM
NC1CCN(C(=O)CNC(=O)c2ccc(Nc3nccn4c(-c5c[nH]nc5C(F)(F)F)cnc34)cc2Cl)CC1 [Example 136, N-[2-(4-aminopiperidin-1-yl)-2-oxoethyl]-2-chloro-4-[[3-[3-(trifluoromethyl)-1H-pyrazol-4-yl]imidazo[1,2-a]pyrazin-8-yl]amino]benzamide] | 1.33 µM
CCc1cc(Nc2nccn3c(-c4cn(CC(F)F)nc4C(F)(F)F)cnc23)ccc1C(=O)NCCCNC(=O)[C@@H]1C[C@@H](O)CN1 [Example 727, (2S,4R)-N-(3-(4-((3-(1-(2,2-difluoroethyl)-3-(trifluoromethyl)-1H-pyrazol-4-yl)imidazo[1,2-a]pyrazin-8-yl)amino)-2-ethylbenzamido)propyl)-4-hydroxypyrrolidine-2-carboxamide] | 0.465 µM
Cc1cc(Nc2nccn3c(-c4c[nH]nc4C(F)(F)F)cnc23)ccc1C(=O)N1CCN(C(=O)[C@@H]2CNCC[C@H]2O)CC1 (racemic) [Example 467, [2-methyl-4-[[3-[3-(trifluoromethyl)-1H-pyrazol-4-yl]imidazo[1,2-a]pyrazin-8-yl]amino]phenyl]-[4-[rac-(3R,4R)-4-hydroxypiperidine-3-carbonyl]piperazin-1-yl]methanone hydrochloride] | 1.42 µM
N#CCn1cc(-c2cnc3c(Nc4ccc(C(=O)N5CC(NC(=O)N[C@H]6CCNC6)C5)c(Cl)c4)nccn23)c(C(F)(F)F)n1 [Example 172, 1-[1-[2-chloro-4-[[3-[1-(cyanomethyl)-3-(trifluoromethyl)pyrazol-4-yl]imidazo[1,2-a]pyrazin-8-yl]amino]benzoyl]azetidin-3-yl]-3-[(3S)-pyrrolidin-3-yl]urea] | 0.832 µM
N[C@@H]1CCN(C(=O)CNC(=O)c2ccc(Nc3nccn4c(-c5c[nH]nc5C(F)(F)F)cnc34)cc2Cl)C1 [Example 137, N-[2-[(3R)-3-aminopyrrolidin-1-yl]-2-oxoethyl]-2-chloro-4-[[3-[3-(trifluoromethyl)-1H-pyrazol-4-yl]imidazo[1,2-a]pyrazin-8-yl]amino]benzamide] | 1.86 µM
CCc1cc(Nc2nccn3c(-c4cn(CC(F)F)nc4C(F)(F)F)cnc23)ccc1C(=O)NCCCNC(=O)[C@@H]1CCCN1 [Example 627, (S)-N-(3-(4-((3-(1-(2,2-difluoroethyl)-3-(trifluoromethyl)-1H-pyrazol-4-yl)imidazo[1,2-a]pyrazin-8-yl)amino)-2-ethylbenzamido)propyl) pyrrolidine-2-carboxamide] | 0.19 µM
C#CCNCCCNC(=O)c1c(C)cc(Nc2nccn3c(-c4c[nH]nc4C(F)(F)F)cnc23)cc1F [Example 85, 2-fluoro-6-methyl-N-[3-(prop-2-ynylamino)propyl]-4-[[3-[3-(trifluoromethyl)-1H-pyrazol-4-yl]imidazo[1,2-a]pyrazin-8-yl]amino]benzamide] | 3.26 µM
CCc1cc(Nc2nccn3c(-c4cn(CC(F)F)nc4C(F)(F)F)cnc23)ccc1C(=O)NCCNC(=O)[C@@H]1C[C@@H](O)CN1 [Example 667, (2S,4R)-N-(2-(4-((3-(1-(2,2-difluoroethyl)-3-(trifluoromethyl)-1H-pyrazol-4-yl)imidazo[1,2-a]pyrazin-8-yl)amino)-2-ethylbenzamido)ethyl)-4-hydroxypyrrolidine-2-carboxamide] | 0.294 µM
CCc1cc(Nc2nccn3c(-c4cn(CC#N)nc4C(F)(F)F)cnc23)ccc1C(=O)NCC(=O)NCCN [Example 765, N-[2-(2-aminoethylamino)-2-oxo-ethyl]-4-[[3-[1-(cyanomethyl)-3-(trifluoromethyl)pyrazol-4-yl]imidazo[1,2-a]pyrazin-8-yl]amino]-2-ethyl-benzamide] | 0.895 µM
CCc1cc(Nc2nccn3c(-c4cn(CC(C)CO)nc4C(F)(F)F)cnc23)ccc1C(=O)NCCOCCN (stereo not shown) [Example 267, N-[2-(2-aminoethoxy)ethyl]-2-ethyl-4-[[3-[1-(3-hydroxy-2-methylpropyl)-3-(trifluoromethyl)pyrazol-4-yl]imidazo[1,2-a]pyrazin-8-yl]amino]benzamide] | 0.225 µM
C=CCn1cc(-c2cnc3c(Nc4ccc(C(=O)NCCOCCN)c(CC)c4)nccn23)c(C(F)F)n1 [Example 121, N-[2-(2-aminoethoxy)ethyl]-4-[[3-[3-(difluoromethyl)-1-prop-2-enylpyrazol-4-yl]imidazo[1,2-a]pyrazin-8-yl]amino]-2-ethylbenzamide] | 0.201 µM

Same assay, conditions: strain ATCC 17961, OD600 growth over 16 h, read-out: A. baumannii ATCC 17961 IC90

Structure (SMILES) | IC90
C#CCn1cc(-c2cnc3c(Nc4ccc(C(=O)NCCCN)c(CC)c4)nccn23)c(C(F)(F)F)n1 [Example 47, N-(3-aminopropyl)-2-ethyl-4-[[3-[1-prop-2-ynyl-3-(trifluoromethyl)pyrazol-4-yl]imidazo[1,2-a]pyrazin-8-yl]amino] benzamide] | 0.105 µM
N#CCn1cc(-c2cnc3c(Nc4ccc(C(=O)N5CCN(C(=O)NCCN)CC5)c(Cl)c4)nccn23)c(C(F)(F)F)n1 [Example 264, N-(2-aminoethyl)-4-[2-chloro-4-[[3-[1-(cyanomethyl)-3-(trifluoromethyl)pyrazol-4-yl]imidazo[1,2-a]pyrazin-8-yl]amino]benzoyl] piperazine-1-carboxamide formate] | 0.451 µM
